Patent US10047075B2, “Pyridines and pyrimidines and use thereof” (Purdue Pharma L.P., priority 2014, dated 2018)

Each compound was assayed against human Nav1.7 (Homo sapiens, UniProt Q15858) (assay: FLIPR or FLIPR TETRA sodium dye assay with KCl and test article pre-incubation (CoroNa Green, veratridine + scorpion venom)). Settings: recombinant human Nav1.7 in HEK293 cells.
Format: cell-based

Chain of human Nav1.7 (Q15858 1-1977 isoform Q15858-3): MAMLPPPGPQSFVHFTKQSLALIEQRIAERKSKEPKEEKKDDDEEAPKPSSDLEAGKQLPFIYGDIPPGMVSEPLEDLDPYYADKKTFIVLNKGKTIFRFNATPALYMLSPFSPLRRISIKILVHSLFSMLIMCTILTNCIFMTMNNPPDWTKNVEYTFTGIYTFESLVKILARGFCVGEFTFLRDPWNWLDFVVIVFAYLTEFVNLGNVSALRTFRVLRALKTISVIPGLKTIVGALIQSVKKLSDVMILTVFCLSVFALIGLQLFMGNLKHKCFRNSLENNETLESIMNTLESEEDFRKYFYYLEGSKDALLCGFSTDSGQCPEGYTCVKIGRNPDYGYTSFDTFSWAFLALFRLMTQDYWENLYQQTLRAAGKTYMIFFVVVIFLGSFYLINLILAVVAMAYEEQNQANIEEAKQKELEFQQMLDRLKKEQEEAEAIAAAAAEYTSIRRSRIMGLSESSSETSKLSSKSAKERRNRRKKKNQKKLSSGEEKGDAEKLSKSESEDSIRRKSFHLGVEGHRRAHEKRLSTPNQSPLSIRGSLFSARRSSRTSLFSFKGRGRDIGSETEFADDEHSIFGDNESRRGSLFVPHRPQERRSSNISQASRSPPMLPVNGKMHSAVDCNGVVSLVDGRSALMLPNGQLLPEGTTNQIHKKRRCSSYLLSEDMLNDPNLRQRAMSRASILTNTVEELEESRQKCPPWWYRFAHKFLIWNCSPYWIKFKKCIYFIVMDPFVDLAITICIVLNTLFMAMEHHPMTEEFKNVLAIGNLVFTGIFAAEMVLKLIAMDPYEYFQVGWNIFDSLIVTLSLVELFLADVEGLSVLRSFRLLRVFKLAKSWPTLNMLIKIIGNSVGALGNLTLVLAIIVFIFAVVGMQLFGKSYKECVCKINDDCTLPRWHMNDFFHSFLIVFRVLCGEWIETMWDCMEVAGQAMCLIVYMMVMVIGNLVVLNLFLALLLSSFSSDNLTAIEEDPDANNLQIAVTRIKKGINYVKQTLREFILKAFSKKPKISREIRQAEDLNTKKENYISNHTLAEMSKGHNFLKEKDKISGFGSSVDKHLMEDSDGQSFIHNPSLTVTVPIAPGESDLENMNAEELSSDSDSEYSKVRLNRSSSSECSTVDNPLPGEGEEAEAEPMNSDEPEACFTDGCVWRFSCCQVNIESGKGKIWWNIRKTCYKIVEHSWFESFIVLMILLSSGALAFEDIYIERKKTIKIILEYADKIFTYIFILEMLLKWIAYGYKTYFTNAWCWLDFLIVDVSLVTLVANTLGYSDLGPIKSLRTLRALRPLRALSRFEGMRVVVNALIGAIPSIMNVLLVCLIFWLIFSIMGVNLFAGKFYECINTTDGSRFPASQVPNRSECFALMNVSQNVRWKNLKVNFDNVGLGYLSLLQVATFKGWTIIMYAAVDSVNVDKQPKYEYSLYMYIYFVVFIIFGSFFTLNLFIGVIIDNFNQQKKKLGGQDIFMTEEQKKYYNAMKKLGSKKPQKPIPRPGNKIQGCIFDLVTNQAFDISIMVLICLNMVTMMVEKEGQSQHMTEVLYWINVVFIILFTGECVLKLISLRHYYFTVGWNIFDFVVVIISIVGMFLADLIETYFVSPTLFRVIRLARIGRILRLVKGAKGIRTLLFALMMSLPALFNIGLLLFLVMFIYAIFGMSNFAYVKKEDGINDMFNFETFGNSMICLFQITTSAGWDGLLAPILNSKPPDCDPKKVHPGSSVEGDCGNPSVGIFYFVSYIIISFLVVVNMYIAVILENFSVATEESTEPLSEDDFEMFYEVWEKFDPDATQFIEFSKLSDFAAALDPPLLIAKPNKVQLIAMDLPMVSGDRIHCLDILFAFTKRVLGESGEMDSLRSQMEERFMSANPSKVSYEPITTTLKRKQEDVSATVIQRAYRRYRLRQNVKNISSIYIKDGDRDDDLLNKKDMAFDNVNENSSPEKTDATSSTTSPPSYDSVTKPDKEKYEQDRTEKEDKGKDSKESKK

Compound | IC50 [µM]
NC(=O)[C@H](O)[C@@H](O)c1cccc(-c2ccc3c(c2)OCCCN3c2ccc(C(F)(F)F)cc2)n1 [Compound 83, (2R,3S)-2,3-dihydroxy-3-(6-(5-(4-(trifluoromethyl)phenyl)-2,3,4,5-tetrahydrobenzo[b][1,4]-oxazepin-8-yl)pyridin-2-yl)propanamide] | 0.213 ± 0.013
NC(=O)c1cc(CN[C@H]2CCNC2=O)nc(-c2ccc3c(c2)OCCCN3c2ccc(C(F)(F)F)cc2)n1 [Compound 72, (S)-6-(((2-oxopyrrolidin-3-yl)amino)methyl)-2-(5-(4-(trifluoromethyl)phenyl)-2,3,4,5-tetrahydrobenzo[b][1,4]oxazepin-8-yl)pyrimidine-4-carboxamide] | 0.11 ± 0.022
C[C@H](Nc1cc(C(N)=O)nc(-c2ccc3c(c2)CNCCN3c2ccc(C(F)(F)F)cc2)n1)C(N)=O [Compound 88, (S)-6-((1-amino-1-oxopropan-2-yl)amino)-2-(1-(4-(trifluoromethyl)phenyl)-2,3,4,5-tetrahydro-1H-benzo[e][1,4]diazepin-7-yl)pyrimidine-4-carboxamide] | > 20
CCN(CC)C(=O)N1CCN(c2ccc(C(F)(F)F)cc2)c2ccc(-c3cccc(C(N)=O)n3)cc2C1 [Compound 92, 7-(6-carbamoylpyridin-2-yl)-N,N-diethyl-1-(4-(trifluoromethyl)phenyl)-1,2,3,5-tetrahydro-4H-benzo[e][1,4]diazepino-4-carboxamide] | 0.813 ± 0.057
OC[C@@H](O)c1cccc(-c2ccc3c(c2)CCCCN3C2CCC(F)(F)CC2)n1 [Compound 76, (S)-1-(6-(1-(4,4-difluorocyclohexyl)-2,3,4,5-tetrahydro-1H-benzo[b]azepin-7-yl)pyridin-2-yl)ethane-1,2-diol] | 0.526 ± 0.034
O=S(=O)(c1ccc(C(F)(F)F)cc1)N1CCCc2cc(-c3cccc([C@H](O)CO)n3)ccc21 [Compound 78, (S)-1-(6-(1-((4-(trifluoromethyl)-phenyl)sulfonyl)-1,2,3,4-tetrahydroquinolin-6-yl)pyridin-2-yl)ethane-1,2-diol] | 0.857 ± 0.103
OC[C@@H](O)c1cccc(-c2ccc3c(c2)CCCCN3C2CCOCC2)n1 [Compound 75, (S)-1-(6-(1-(tetrahydro-2H-pyran-4-yl)-2,3,4,5-tetrahydro-1H-benzo[b]azepin-7-yl)pyridin-2-yl)ethane-1,2-diol] | 3.35 ± 0.244
NC(=O)c1cc(-c2ccc3c(c2)CN(CC2CC2)CCN3c2ccc(C(F)(F)F)cc2)cc([C@H](O)CO)n1 [Compound 123, (S)-4-(4-(cyclopropylmethyl)-1-(4-(trifluoromethyl)phenyl)-2,3,4,5-tetrahydro-1H-benzo[e][1,4]diazepin-7-yl)-6-(1,2-dihydroxyethyl)-picolinamide] | 9.61 ± 0.339
C[C@H](Nc1cc(C(N)=O)nc(-c2ccc3c(c2)CCCN3c2ccc(C(F)(F)F)cc2)n1)C(N)=O [Compound 80, (S)-6-((1-amino-1-oxopropan-2-yl)amino)-2-(1-(4-(trifluoro-methyl)phenyl)-1,2,3,4-tetrahydroquinolin-6-yl)pyrimidine-4-carboxamide] | 0.653 ± 0.118
OC[C@@H](O)c1cccc(-c2ccc3c(c2)CCCN3Cc2ccc(C(F)(F)F)cc2)n1 [Compound 81, (S)-1-(6-(1-(4-(trifluoromethyl)benzyl)-1,2,3,4-tetrahydroquinolin-6-yl)pyridin-2-yl)ethane-1,2-diol] | 0.091 ± 0.025
NC(=O)c1cccc(-c2ccc3c(c2)OCCCN3c2ccc(C(F)(F)F)cc2)n1 [Compound 65, 6-(5-(4-(trifluoromethyl)-phenyl)-2,3,4,5-tetrahydrobenzo[b][1,4]oxazepin-8-yl)picolinamide] | 0.338 ± 0.034
CNC(=O)CN1CCN(c2ccc(C(F)(F)F)cc2)c2ccc(-c3cccc([C@H](O)CO)n3)cc2C1 [Compound 105, (S)-2-(7-(6-(1,2-dihydroxyethyl)pyridin-2-yl)-1-(4-(trifluoromethyl)phenyl)-1,2,3,5-tetrahydro-4H-benzo[e][1,4]diazepin-4-yl)-N-methylacetamide] | 0.644 ± 0.025
OC[C@@H](O)c1cccc(-c2ccc3c(c2)CCCCN3C2CCCCC2)n1 [Compound 73, (S)-1-(6-(1-cyclohexyl-2,3,4,5-tetrahydro-1H-benzo[b]azepin-7-yl)pyridin-2-yl)ethane-1,2-diol] | 0.331 ± 0.031
NC(=O)c1cccc(-c2ccc3c(c2)CCN3c2ccc(C(F)(F)F)cc2)n1 [Compound 68, 6-(1-(4-(trifluoromethyl)-phenyl)indolin-5-yl)-picolinamide] | > 20
CCNC(=O)N1CCN(c2ccc(C(F)(F)F)cc2)c2ccc(-c3cccc([C@H](O)CO)n3)cc2C1 [Compound 97, (S)-7-(6-(1,2-dihydroxyethyl)pyridin-2-yl)-N-ethyl-1-(4-(trifluoromethyl)phenyl)-1,2,3,5-tetrahydro-4H-benzo[e][1,4]diazepin-4-carboxamide] | 2.62 ± 0.1
C[C@H](Nc1cc(C(N)=O)nc(-c2ccc3c(c2)CCCCN3c2ccc(C(F)(F)F)cc2)n1)C(N)=O [Compound 64, (S)-6-((1-amino-1-oxopropan-2-yl)amino)-2-(1-(4-(trifluoro-methyl)phenyl)-2,3,4,5-tetrahydro-1H-benzo[b]azepin-7-yl)pyrimidine-4-carboxamide] | 1.04 ± 0.077

Compound | IC50 [µM]
C[C@H](Nc1cc(C(N)=O)nc(-c2ccc3c(c2)CN(CC2CC2)CCN3c2ccc(C(F)(F)F)cc2)n1)C(N)=O [Compound 89, (S)-6-((1-amino-1-oxopropan-2-yl)amino)-2-(4-(cyclopropylmethyl)-1-(4-(trifluoromethyl)phenyl)-2,3,4,5-tetrahydro-1H-benzo[e][1,4]diazepin-7-yl)pyrimidine-4-carboxamide] | > 20
NC(=O)c1cccc(-c2ccc3c(c2)CCCCN3c2ccc(C(F)(F)F)cc2)n1 [Compound 58, 6-(1-(4-(trifluoromethyl)phenyl)-2,3,4,5-tetrahydro-1H-benzo[b]azepin-7-yl)picolinamide] | 0.357 ± 0.015
NC(=O)c1cccc(-c2ccc3c(c2)CNCCN3c2ccc(C(F)(F)F)cc2)n1 [Compound 84, 6-(1-(4-(trifluoromethyl)-phenyl)-2,3,4,5-tetrahydro-1H-benzo[e][1,4]diazepin-7-yl)picolinamide] | 1.92 ± 0.296
N#CCN1CCN(c2ccc(C(F)(F)F)cc2)c2ccc(-c3cccc(C(N)=O)n3)cc2C1 [Compound 102, 6-(4-(cyanomethyl)-1-(4-(trifluoromethyl)phenyl)-2,3,4,5-tetrahydro-1H-benzo[e][1,4]diazepin-7-yl)picolinamide] | 0.857 ± 0.075
OC[C@@H](O)c1cccc(-c2ccc3c(c2)CN(Cc2ncc[nH]2)CCN3c2ccc(C(F)(F)F)cc2)n1 [Compound 107, (S)-1-(6-(4-((1H-imidazol-2-yl)methyl)-1-(4-(trifluoromethyl)phenyl)-2,3,4,5-tetrahydro-1H-benzo[e][1,4]diazepin-7-yl)pyridin-2-yl)ethane-1,2-diol] | 0.669 ± 0.053
NC(=O)c1cc(O[C@H]2CCNC2=O)nc(-c2ccc3c(c2)OCCCN3c2ccc(C(F)(F)F)cc2)n1 [Compound 82, (S)-6-((2-oxopyrrolidin-3-yl)oxy)-2-(5-(4-(trifluoromethyl)phenyl)-2,3,4,5-tetrahydrobenzo-[b][1,4]oxazepin-8-yl)pyrimidine-4-carboxamide] | 0.211 ± 0.038
CC(=O)N1CCN(C2CCCCC2)c2ccc(-c3cccc([C@H](O)CO)n3)cc2C1 [Compound 94, (S)-1-(1-cyclohexyl-7-(6-(1,2-dihydroxyethyl)pyridin-2-yl)-1,2,3,5-tetrahydro-4H-benzo[e][1,4]diazepin-4-yl)ethan-1-one] | 8.8 ± 1.92
NC(=O)c1cccc(-c2ccc3c(c2)CCCN3c2cccc(C(F)(F)F)c2)n1 [Compound 67, 6-(1-(3-(trifluoromethyl)-phenyl)-1,2,3,4-tetrahydroquinolin-6-yl)picolinamide] | > 20
C[C@H](Nc1cc(C(N)=O)nc(-c2ccc3c(c2)OCCC3Cc2ccc(F)cc2)n1)C(N)=O (stereo partly drawn) [Compound 112, 6-(((S)-1-amino-1-oxopropan-2-yl)amino)-2-(4-(4-fluorobenzyl)chroman-7-yl)pyrimidine-4-carboxamide] | 5.32 ± 0.425
NC(=O)c1cccc(-c2ccc3c(c2)OCC=C3c2ccc(C(F)(F)F)cc2)n1 [Compound 69, 6-(4-(4-(trifluoromethyl)-phenyl)-2H-chromen-7-yl)picolinamide] | 0.524 ± 0.077
NC(=O)c1cccc(-c2ccc3c(c2)COCCN3c2ccc(C(F)(F)F)cc2)n1 [Compound 61, 6-(1-(4-(trifluoromethyl)phenyl)-1,2,3,5-tetrahydrobenzo[e][1,4]oxazepin-7-yl)picolinamide] | 0.404 ± 0.036
NC(=O)c1cccc(-c2ccc3c(c2)CCCN3c2ccc(C(F)(F)F)cc2)n1 [Compound 66, 6-(1-(4-(trifluoromethyl)-phenyl)-1,2,3,4-tetrahydroquinolin-6-yl)picolinamide] | 0.913 ± 0.024
NC(=O)c1cccc(-c2ccc3c(c2)CN(C(=O)C2CC2)CCN3c2ccc(C(F)(F)F)cc2)n1 [Compound 93, 6-(4-(cyclopropanecarbonyl)-1-(4-(trifluoromethyl)phenyl)-2,3,4,5-tetrahydro-1H-benzo[e][1,4]diazepin-7-yl)picolinamide] | > 20
CN(C)CC(=O)N1CCN(c2ccc(C(F)(F)F)cc2)c2ccc(-c3cccc([C@H](O)CO)n3)cc2C1 [Compound 100, (S)-1-(7-(6-(1,2-dihydroxyethyl)pyridin-2-yl)-1-(4-(trifluoromethyl)phenyl)-1,2,3,5-tetrahydro-4H-benzo[e][1,4]diazepin-4-yl)-2-(dimethylamino)ethan-1-one] | 7.07 ± 1.45
NC(=O)CN1CCN(C2CCCCC2)c2ccc(-c3cccc([C@H](O)CO)n3)cc2C1 [Compound 104, (S)-2-(1-cyclohexyl-7-(6-(1,2-dihydroxyethyl)pyridin-2-yl)-1,2,3,5-tetrahydro-4H-benzo[e][1,4]diazepin-4-yl)acetamide] | 2.61 ± 0.047
NC(=O)c1cc([C@H](O)CO)cc(-c2ccc3c(c2)CN(CC2CC2)CCN3c2ccc(C(F)(F)F)cc2)n1 [Compound 122, (S)-6-(4-(cyclopropylmethyl)-1-(4-(trifluoromethyl)phenyl)-2,3,4,5-tetrahydro-1H-benzo[e][1,4]diazepin-7-yl)-4-(1,2-dihydroxyethyl)-picolinamide] | 7.21 ± 0.341
